Holding throughout (format): cell-based
Test [1] has as its target T1, human cloned CHRM2 receptor (M2_CHO cells) (Homo sapiens, UniProt P08172).
T1 construct: expressed in transfected cells; host or cells: CHO-K1
T1 sequence (P08172 1-466): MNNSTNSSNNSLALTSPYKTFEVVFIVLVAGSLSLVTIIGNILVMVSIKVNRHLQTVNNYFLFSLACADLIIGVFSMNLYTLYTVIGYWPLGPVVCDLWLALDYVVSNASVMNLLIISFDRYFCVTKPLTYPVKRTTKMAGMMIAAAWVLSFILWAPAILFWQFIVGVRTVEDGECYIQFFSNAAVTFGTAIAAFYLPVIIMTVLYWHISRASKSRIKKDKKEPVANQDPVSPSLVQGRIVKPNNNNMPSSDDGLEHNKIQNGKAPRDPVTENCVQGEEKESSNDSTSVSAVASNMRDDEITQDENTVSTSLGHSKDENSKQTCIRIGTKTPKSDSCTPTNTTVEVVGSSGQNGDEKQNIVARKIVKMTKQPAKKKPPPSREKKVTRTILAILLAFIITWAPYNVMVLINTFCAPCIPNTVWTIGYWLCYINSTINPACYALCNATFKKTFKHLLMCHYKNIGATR
The experiment in a line: CHRM2 Ca++ Flux Assay (agonist mode, FDSS 7000EX). Conditions: for Emax: Percent Activity measured to EC100 of Carbachol, read-out: M2 FDSS PA; for EC50: agonist mode, geometric mean if tested more than once, read-out: M2 FDSS EC50. The method, boiled down:
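Agonist-mode Ca++ flux in CHO-K1 cells stably expressing human CHRM2, dye-loaded, then held 60 min at room temperature in buffer with 20 μM ATP before compound addition; traces read over 3 minutes. Four-parameter fit of triplicate wells; percent activity relative to Carbachol EC100.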

The target in test [2] is T2, human cloned CHRM3 receptor (M3_CHO cells) (Homo sapiens, UniProt P20309).
T2 construct: expressed in transfected cells; host or cells: CHO-K1
The test can be described thus: CHRM3 Ca++ Flux Assay (agonist mode, FDSS 7000EX). The following applies: for Emax: Percent Activity measured to EC100 of Carbachol, read-out: M3 FDSS PA; for EC50: agonist mode, geometric mean if tested more than once, read-out: M3 FDSS EC50. In short, it runs like this:
(§1)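 Agonist-mode calcium flux: 11-point dose responses, triplicate wells, fluorescence followed for 3 minutes. Cells are M3_CHO or M5_CHO lines (human receptors) with Ca++ indicator in probenecid-containing HEPES/HBSS buffer. Percent activity is referenced to carbachol EC100, and curves come from four-parameter nonlinear regression.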

In test [3] the target is T3, human cloned CHRM5 receptor (M5_CHO) (Homo sapiens, UniProt P08912).
T3 construct: expressed in transfected cells; host or cells: CHO (M5_CHO)
T3 sequence (P08912 1-532): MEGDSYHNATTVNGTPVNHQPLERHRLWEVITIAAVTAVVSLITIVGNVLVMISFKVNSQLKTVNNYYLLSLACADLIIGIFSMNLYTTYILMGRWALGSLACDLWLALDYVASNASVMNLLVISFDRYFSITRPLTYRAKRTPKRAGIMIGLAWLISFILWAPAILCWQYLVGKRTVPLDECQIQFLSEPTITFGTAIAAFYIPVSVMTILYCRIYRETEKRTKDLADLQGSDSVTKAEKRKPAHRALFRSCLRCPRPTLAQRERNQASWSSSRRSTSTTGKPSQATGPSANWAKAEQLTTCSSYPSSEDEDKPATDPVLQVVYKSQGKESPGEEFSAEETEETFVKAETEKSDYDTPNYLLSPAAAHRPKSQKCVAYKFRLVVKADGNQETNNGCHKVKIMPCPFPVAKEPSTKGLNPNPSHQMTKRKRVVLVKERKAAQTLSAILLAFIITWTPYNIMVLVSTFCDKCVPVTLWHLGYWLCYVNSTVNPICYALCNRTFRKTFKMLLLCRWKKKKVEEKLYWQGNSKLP
The test can be described thus: CHRM5 Ca++ Flux Assay (agonist mode, FDSS 7000EX). Conditions: for Emax: Percent Activity measured to EC100 of Carbachol, read-out: M5 FDSS PA; for EC50: agonist mode, geometric mean if tested more than once, read-out: M5 FDSS EC50. The method, boiled down: as §1

This is an account of results in patent US12122761B2, “2-azaspiro[3.4]octane derivatives as M4 agonists” (NOVARTIS AG, priority 2019, dated 2024).

T2 sequence (P20309 whole entry): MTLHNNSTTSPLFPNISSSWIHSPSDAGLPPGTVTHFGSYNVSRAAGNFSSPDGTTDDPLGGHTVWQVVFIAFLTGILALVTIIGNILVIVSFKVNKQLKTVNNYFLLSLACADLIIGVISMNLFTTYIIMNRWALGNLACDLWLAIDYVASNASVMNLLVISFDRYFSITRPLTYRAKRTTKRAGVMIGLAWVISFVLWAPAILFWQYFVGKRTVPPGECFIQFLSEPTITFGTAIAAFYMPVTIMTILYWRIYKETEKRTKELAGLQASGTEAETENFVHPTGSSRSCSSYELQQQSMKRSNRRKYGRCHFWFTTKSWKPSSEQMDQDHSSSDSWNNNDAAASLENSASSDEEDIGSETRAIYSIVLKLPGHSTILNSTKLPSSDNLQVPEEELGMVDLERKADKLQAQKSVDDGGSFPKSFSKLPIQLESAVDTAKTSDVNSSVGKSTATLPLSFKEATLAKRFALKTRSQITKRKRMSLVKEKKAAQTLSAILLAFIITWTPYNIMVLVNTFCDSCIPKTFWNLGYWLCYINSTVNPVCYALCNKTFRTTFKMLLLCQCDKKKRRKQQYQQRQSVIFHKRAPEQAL

One may read the EC50 as the concentration giving half of the maximal effect. In the case of `O=C(C1COC1)N1CC2(CC[C@@H](N3CCC(c4ccccc4OCC4CC4)CC3)C2)C1` [Example 7I, (R)-(6-(4-(2-(cyclopropylmethoxy)phenyl)piperidin-1-yl)-2-azaspiro[3.4]octan-2-yl)(oxetan-3-yl)methanone], the Emax was determined as 16% in test [1], 0% in test [2] and 0% in test [3]. The figures for the EC50 in test [1], in test [2] and in test [3] were 0.123 µM, above 25 µM and above 25 µM, respectively.

For the molecule `O=C(C1COC1)N1CC2(CC[C@@H](N3CCC(c4ccccc4OCC4(C(F)(F)F)CC4)CC3)C2)C1` [Example 7II, (R)-oxetan-3-yl(6-(4-(2-((1-(trifluoromethyl)cyclopropyl)methoxy)phenyl)piperidin-1-yl)-2-azaspiro[3.4]octan-2-yl)methanone], the Emax in test [1] was determined as 12%; in test [2], 0%; in test [3], 13%. The EC50 is 6.88 µM in test [1], above 25 µM in test [2] and 1.64 µM in test [3].

Turning to `CCOc1ccccc1C1CCN([C@@H]2CCC3(C2)CN(C(=O)C2COC2)C3)CC1` [Example 7J, (R)-(6-(4-(2-ethoxyphenyl)piperidin-1-yl)-2-azaspiro[3.4]octan-2-yl)(oxetan-3-yl)methanone], the Emax in test [1] came to 33%; in test [2], 0%; in test [3] it was 0%. Also, the EC50 in test [1] was determined as 0.207 µM.

Consider `O=C(C1COC1)N1CC2(CC[C@@H](N3CCC(c4ccccc4OCC(F)F)CC3)C2)C1` [Example 7JJ, (R)-(6-(4-(2-(2,2-difluoroethoxy)phenyl)piperidin-1-yl)-2-azaspiro[3.4]octan-2-yl)(oxetan-3-yl)methanone], for which the results for the Emax in test [1], in test [2] and in test [3] were 22%, 0% and 9%, respectively. The values for the EC50 in test [1], in test [2] and in test [3] were 0.098 µM, above 25 µM and 0.935 µM, respectively.

Regarding `CC(C)Oc1ccccc1C1CCN([C@@H]2CCC3(C2)CN(C(=O)C2COC2)C3)CC1` [Example 7K, (R)-(6-(4-(2-isopropoxyphenyl)piperidin-1-yl)-2-azaspiro[3.4]octan-2-yl)(oxetan-3-yl)methanone], the Emax in test [1] stood at 23%; in test [2], 0%; in test [3], 0%. For the same molecule, the 50% effective concentration (EC50) is 0.59 µM in test [1], above 25 µM in test [2] and above 25 µM in test [3].

With `O=C(C1COC1)N1CC2(CC[C@@H](N3CCC(c4ccccc4OCCC4COC4)CC3)C2)C1` [Example 7KK, (R)-oxetan-3-yl(6-(4-(2-(2-(oxetan-3-yl)ethoxy)phenyl)piperidin-1-yl)-2-azaspiro[3.4]octan-2-yl)methanone], the Emax in test [1] was 21%; in test [2], 0%; in test [3], 0%. The EC50 in test [1] is 0.091 µM; in test [2] it was above 25 µM; in test [3], above 25 µM.

In the case of `CC(C)(O)COc1ccccc1C1CCN([C@@H]2CCC3(C2)CN(C(=O)C2COC2)C3)CC1` [Example 7L, (R)-(6-(4-(2-(2-hydroxy-2-methylpropoxy)phenyl)piperidin-1-yl)-2-azaspiro[3.4]octan-2-yl)(oxetan-3-yl)methanone], the Emax in test [1], in test [2] and in test [3] was 0% in each case. Further, the concentration giving a half-maximal response (EC50) in test [2] and in test [3] was above 25 µM in each case.

As to `O=C(C1COC1)N1CC2(CC[C@@H](N3CCC(c4ccccc4OC(F)(F)F)CC3)C2)C1` [Example 12A, (R)-oxetan-3-yl(6-(4-(2-(trifluoromethoxy)phenyl)piperidin-1-yl)-2-azaspiro[3.4]octan-2-yl)methanone], the results for the Emax in test [1], in test [2] and in test [3] were 18%, 0% and 0%, respectively. Moreover, the EC50 in test [1] was 110 µM; in test [2], above 25 µM; in test [3], above 25 µM.
